Here are results for one compound from patent publication EP2875811A1, “Use of dobesilate for treating ocular haemorrhages” (priority 2013, dated 2015).

One data set relates to submacular haemorrhage. It is filed as in vivo, human. Here is the method: A person with a history of wet age-related macular degeneration (AMD) in both eyes developed a sudden vision decrease in the right eye. The best corrected visual acuity (BCVA) on presentation was of 0.05. […] Haemorrhage seems also result in the RPE detachment at some points (Fig 1D, asterisk). Intravitreal dobesilate was administered in the right eye, using a standard protocol. After approval of our Institution Ethical Committee, the patient signed an informed consent form, which included a comprehensive description of dobesilate and the proposed procedure. Patient received an intravitreal solution of dobesilate (150µl) under sterile conditions in their right eye, following the International Guidelines for intravitreal injections (Aiello LP et al. Retina. 2004; 24 (5 Suppl):S3-S19). Dobesilate was administered as a 12.5% solution of diethylammonium 2.5-dihydroxybenzenesulfonate (etamsylate; dicynone® Sanofi-Aventis. Paris. France).
(§1) • Figure 1 Sequence of fundus photographs (A-D) and spectral-domain optical coherence tomography (SD-OCT) scans (D-F) of a patient with a moderate-sized submacular haemorrhage at baseline (A,D), and one (B,E) and two months (C,F) after a single intravitreal injection of dobesilate. Asterisk in D indicates retinal pigment epithelium (RPE) detachment. • Figure 2 Efficacy of intravitreal dobesilate injection to clear vitreous haemorrhage in a diabetic patient. A and C photographs were taken at presentation, and B and D after 3 days of treatment. […] Note in B the abnormal appearance of the pupil due to luxation of the lens. Arrow indicates paracentesis site.

The next data set relates to vitreous haemorrhage. It is filed as in vivo, human. Here is the method:
A 68 old-year type 2 diabetic man presented with intense vision loss in their right eye. […] Intraocular pressure was 50mmHg that was reduced to 14mmHg after a paracentesis procedure. After approval of the Institutional Ethics Committee, the patient signed an informed consent form, which included a comprehensive description of dobesilate and the proposed procedure. Patient received an intravitreal solution of dobesilate (150 µl) under sterile conditions, following the International Guidelines for intravitreal injections (Aiello LP et al. Retina. 2004; 24 (5 Suppl):S3-S19) in their right eye. Dobesilate was administered as a 12.5% solution of diethylammonium 2.5-dihydroxybenzenesulfonate (etamsylate, dicynone® Sanofi-Aventis. Paris. France).
as §1, with “Arrow indicates paracentesis site.” left out

Where [1] appears, read: person, right eye, intravitreal 150µl of 12.5% solution, along two months follow-up.

Structures are written as SMILES.

Take `O=S(=O)(O)c1cc(O)ccc1O` [dobesilate, diethylammonium 2.5-dihydroxybenzenesulfonate]: the ocular side effects result with submacular haemorrhage (human, in vivo) is given as “No ocular side effects were observed”; in the data set with vitreous haemorrhage (human, in vivo), “No ocular side effects were observed”. Also, the “SD-OCT scans: retinal architecture / RPE detachment” value in the data set on submacular haemorrhage (setting [1]) was “progressive normalization of the retinal architecture with disappearance of RPE detachment”. Besides, in the data set on submacular haemorrhage (setting [1]), the “haemorrhage signs (fundus)” value was “gradually disappeared”. In the data set on submacular haemorrhage (person, right eye, intravitreal 150µl of 12.5% solution, two months follow-up, BCVA on presentation 0.05), the “final BCVA (best corrected visual acuity)” value came to 0.50. Moreover, the Intraocular pressure result in the data set on vitreous haemorrhage (after treatment, pressure had been reduced from 50mmHg to 14mmHg by paracentesis before injection) was “maintained at normal level”.
